From PubChem BioAssay AID328 (DTP/NCI, 2004)
“And” between values parts separate entries of the source, which are not always exact repeats. Identical values can stand only once. Toxic doses and inconclusive results are not listed.

Test system: BDF1 mice, P388 leukemia ip, median survival T/C
Assay: NCI In Vivo Anticancer Drug Screen. Data for tumor model P388 Leukemia (intraperitoneal) in B6D2F1 (BDF1) mice
Conditions: endpoint: median survival time, higher = longer survival
Method in brief: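 Vehicle-dosed animals serve as the reference; survival of compound-dosed, tumour-implanted mice is divided by it.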

[1] = dose: 25.0 mg/kg/injection, schedule: Q01DX009 (ip), vehicle: saline with Tween-80
[2] = dose: 100.0 mg/kg/injection, schedule: Q04DX003 (ip), vehicle: saline with Tween-80
[3] = dose: 200.0 mg/kg/injection, schedule: Q04DX003 (ip), vehicle: saline with Tween-80
[4] = dose: 400.0 mg/kg/injection, schedule: Q04DX003 (ip), vehicle: saline with Tween-80
[5] = dose: 12.5 mg/kg/injection, schedule: Q01DX009 (ip), vehicle: water
[6] = dose: 25.0 mg/kg/injection, schedule: Q01DX009 (ip), vehicle: water
[7] = dose: 25.0 mg/kg/injection, schedule: Q04DX003 (ip), vehicle: water
[8] = dose: 50.0 mg/kg/injection, schedule: Q01DX009 (ip), vehicle: water
[9] = dose: 50.0 mg/kg/injection, schedule: Q04DX003 (ip), vehicle: water
[10] = dose: 100.0 mg/kg/injection, schedule: Q04DX003 (ip), vehicle: water
[11] = dose: 200.0 mg/kg/injection, schedule: Q04DX003 (ip), vehicle: water
[12] = dose: 400.0 mg/kg/injection, schedule: Q04DX003 (ip), vehicle: water
[13] = dose: 50.0 mg/kg/injection, schedule: Q01DX009 (ip), vehicle: saline with Tween-80
[14] = dose: 100.0 mg/kg/injection, schedule: Q01DX009 (ip), vehicle: saline with Tween-80
[15] = dose: 200.0 mg/kg/injection, schedule: Q01DX009 (ip), vehicle: saline with Tween-80
[16] = dose: 100.0 mg/kg/injection, schedule: Q01DX009 (ip), vehicle: Klucel (hydroxypropylcellulose) (HPC)
[17] = dose: 200.0 mg/kg/injection, schedule: Q01DX009 (ip), vehicle: Klucel (hydroxypropylcellulose) (HPC)
[18] = dose: 400.0 mg/kg/injection, schedule: Q01DX009 (ip), vehicle: Klucel (hydroxypropylcellulose) (HPC)
[19] = dose: 400.0 mg/kg/injection, schedule: Q01DX001 (ip), vehicle: saline with Tween-80

Compound: O=C1c2ccccc2C(=O)c2c(O)c(N3CCOCC3)cc(O)c21
- T/C (dose: 1.0 mg/kg/injection, schedule: Q01DX009 (ip), vehicle: water): 121 % of control
- T/C (dose: 2.0 mg/kg/injection, schedule: Q01DX009 (ip), vehicle: water): 104 % of control
- T/C (dose: 4.0 mg/kg/injection, schedule: Q01DX009 (ip), vehicle: water): 104 % of control
- T/C (dose: 8.0 mg/kg/injection, schedule: Q01DX009 (ip), vehicle: water): 89 % of control
- T/C (dose: 16.0 mg/kg/injection, schedule: Q01DX009 (ip), vehicle: water): 111 % of control
- T/C (dose: 32.0 mg/kg/injection, schedule: Q01DX009 (ip), vehicle: water): 113 % of control
- T/C (dose: 50.0 mg/kg/injection, schedule: Q01DX009 (ip), vehicle: saline): 90 % of control

Compound: CCOC(=O)Oc1c(OC)cc(C(=O)O[C@@H]2C[C@@H]3CN4CCc5c([nH]c6cc(OC)ccc56)[C@H]4C[C@@H]3[C@H](C(=O)OC)[C@H]2OC)cc1OC
- T/C [1]: 100 % of control

Compound: CCCCCCCCCCCCCCCCCCNC(=S)N/N=C/c1ccc(Cl)cc1Cl
- T/C (dose: 50.0 mg/kg/injection, schedule: Q04DX003 (ip), vehicle: Klucel (hydroxypropylcellulose) (HPC)): 105 % of control
- T/C (dose: 100.0 mg/kg/injection, schedule: Q04DX003 (ip), vehicle: Klucel (hydroxypropylcellulose) (HPC)): 90 % of control
- T/C [2]: 100 % of control
- T/C [3]: 100 % of control
- T/C [4]: 100 % of control

Compound: O=C(c1ccccc1)c1c(-c2ccccc2)c(C(=O)c2ccccc2)c2ccccc2c1Cl
- T/C [5]: 102 % of control
- T/C [6]: 113 % of control
- T/C [7]: 114 % of control
- T/C [8]: 102 % of control
- T/C [9]: 104 % of control
- T/C (dose: 100.0 mg/kg/injection, schedule: Q01DX009 (ip), vehicle: water): 109 % of control
- T/C [10]: 96 % of control
- T/C (dose: 200.0 mg/kg/injection, schedule: Q01DX009 (ip), vehicle: water): 96 % of control
- T/C [11]: 100 % of control
- T/C (dose: 400.0 mg/kg/injection, schedule: Q01DX009 (ip), vehicle: water): 102 % of control
- T/C [12]: 98 % of control

Compound: Cc1ccc(S(=O)(=O)Oc2ccc(-c3ccc(Br)cc3)cc2)cc1
- T/C [13]: 96 % of control
- T/C [14]: 96 % of control
- T/C [15]: 101 % of control
- T/C (dose: 400.0 mg/kg/injection, schedule: Q01DX009 (ip), vehicle: saline with Tween-80): 92 % of control

Compound: CCC(=O)c1ccc(OCC(O)CN2CCN(c3ccccc3OC)CC2)cc1 (stereo not drawn)
- T/C [2]: 104 % of control
- T/C [3]: 104 % of control
- T/C [4]: 119 % of control

Compound: ClC(CN1CCCCC1)C(Cl)c1ccccc1 (stereo not drawn)
- T/C (dose: 50.0 mg/kg/injection, schedule: Q04DX003 (ip), vehicle: saline sonified): 108 % of control
- T/C (dose: 100.0 mg/kg/injection, schedule: Q04DX003 (ip), vehicle: saline sonified): 112 % of control
- T/C (dose: 200.0 mg/kg/injection, schedule: Q04DX003 (ip), vehicle: saline sonified): 104 % of control

Compound: O=P(Oc1cccc2ccccc12)(N1CC1)N1CC1
- T/C [14]: 181 % of control
- T/C [2]: 122 % of control
- T/C (dose: 150.0 mg/kg/injection, schedule: Q01DX009 (ip), vehicle: saline with Tween-80): 231 % of control
- T/C [3]: 150 % of control
- T/C (dose: 264.0 mg/kg/injection, schedule: Q04DX003 (ip), vehicle: saline with Tween-80): 200 % of control
- T/C [4]: 181 % of control and 220 % of control

Compound: COc1ccc(OC(=O)N2C=Cc3ccccc3C2C#N)cc1 (stereo not drawn)
- T/C (dose: 50.0 mg/kg/injection, schedule: Q04DX003 (ip), vehicle: saline): 95 % of control
- T/C (dose: 100.0 mg/kg/injection, schedule: Q04DX003 (ip), vehicle: saline): 100 % of control
- T/C (dose: 200.0 mg/kg/injection, schedule: Q04DX003 (ip), vehicle: saline): 112 % of control

Compound: BrC1(Br)CC1(c1ccccc1)c1ccccc1
- T/C [16]: 110 % of control
- T/C [17]: 110 % of control
- T/C [18]: 105 % of control

Compound: Fc1ccc(C2CN3C(=N2)C=Cc2ccccc23)cc1 (stereo not drawn)
- T/C [13]: 101 % of control
- T/C [14]: 99 % of control
- T/C [15]: 117 % of control

Compound: O=C(COC1CCCCC1)OC1CCCCC1
- T/C [1]: 100 % of control
- T/C [13]: 113 % of control
- T/C [14]: 118 % of control

Compound: NC(=O)OCc1c(O)c2c(c(O)c1COC(N)=O)C(=O)C=CC2=O
- T/C [5]: 111 % of control
- T/C (dose: 12.5 mg/kg/injection, schedule: Q04DX003 (ip), vehicle: water): 100 % of control
- T/C [6]: 92 % of control
- T/C [7]: 104 % of control
- T/C [8]: 104 % of control
- T/C [9]: 101 % of control
- T/C [10]: 100 % of control
- T/C [11]: 102 % of control and 113 % of control
- T/C (dose: 300.0 mg/kg/injection, schedule: Q04DX003 (ip), vehicle: water): 95 % of control
- T/C [12]: 108 % of control

Compound: COc1ccc(Cl)cc1NC1=CC(c2ccc(Cl)cc2)OC1=O (stereo not drawn)
- T/C (dose: 100.0 mg/kg/injection, schedule: Q01DX001 (ip), vehicle: saline with Tween-80): 100 % of control
- T/C (dose: 200.0 mg/kg/injection, schedule: Q01DX001 (ip), vehicle: saline with Tween-80): 100 % of control
- T/C [19]: 95 % of control

Compound: COc1nc(Cl)nc(OC)n1
- T/C [1]: 96 % of control
- T/C [13]: 97 % of control
- T/C [14]: 99 % of control
- T/C [15]: 99 % of control

Compound: CCC(O)C(C)C(O)C(C)C(O)C(C)C(O)C(C)C1OC(=O)CC(O)C(C)C(O)CC(O)CCCC(O)CCC(C)C(O)C2(O)C(=O)CC(CC(O)CC(O)CC(O)CC(O)CCCC(O)C1O)OC2=O (stereo not drawn)
- T/C (dose: 2.5 mg/kg/injection, schedule: Q01DX009 (ip), vehicle: saline): 92 % of control
- T/C (dose: 5.0 mg/kg/injection, schedule: Q01DX009 (ip), vehicle: saline): 109 % of control
- T/C (dose: 10.0 mg/kg/injection, schedule: Q01DX009 (ip), vehicle: saline): 109 % of control

Compound: CC1=C2C(=C(CBr)OS1(=O)=O)C(=O)c1ccccc12
- T/C [2]: 104 % of control
- T/C [3]: 104 % of control
- T/C [4]: 104 % of control

Compound: O=C1c2c(Cl)c(Cl)c(Cl)c(Cl)c2C(=O)N1c1ccc(-c2ccccc2)cc1
- T/C (dose: 43.7 mg/kg/injection, schedule: Q01DX009 (ip), vehicle: saline with Tween-80): 101 % of control
- T/C (dose: 87.5 mg/kg/injection, schedule: Q01DX009 (ip), vehicle: saline with Tween-80): 101 % of control
- T/C (dose: 175.0 mg/kg/injection, schedule: Q01DX009 (ip), vehicle: saline with Tween-80): 99 % of control

Compound: COC(=O)c1c(-c2ccccc2)c(-c2ccccc2)nn(-c2ccccc2)c1=O
- T/C [19]: 87 % of control

Compound: O=C(/C=C/C(=O)Oc1ccccc1)Oc1ccccc1
- T/C [16]: 90 % of control
- T/C [17]: 109 % of control
- T/C [18]: 90 % of control

Compound: Nc1ccc(OCCCc2c(-c3ccccc3)nc(N)[nH]c2=O)cc1
- T/C [1]: 100 % of control
- T/C [13]: 99 % of control
- T/C [14]: 108 % of control

Compound: C[As](C)SC(CO)C1OC2OC(C)(C)OC2C1O (stereo not drawn)
- T/C (dose: 12.5 mg/kg/injection, schedule: Q01DX009 (ip), vehicle: saline + alcohol): 97 % of control
- T/C (dose: 25.0 mg/kg/injection, schedule: Q01DX009 (ip), vehicle: saline + alcohol): 100 % of control
- T/C (dose: 50.0 mg/kg/injection, schedule: Q01DX009 (ip), vehicle: saline + alcohol): 106 % of control

Compound: CC1=CC(=O)C(CO)=CC1=O
- T/C (dose: 0.38 mg/kg/injection, schedule: Q01DX009 (ip), vehicle: saline with Tween-80): 105 % of control
- T/C (dose: 0.75 mg/kg/injection, schedule: Q01DX009 (ip), vehicle: saline with Tween-80): 108 % of control
- T/C (dose: 1.5 mg/kg/injection, schedule: Q01DX009 (ip), vehicle: saline with Tween-80): 110 % of control
- T/C (dose: 3.0 mg/kg/injection, schedule: Q01DX009 (ip), vehicle: saline with Tween-80): 115 % of control
- T/C (dose: 6.0 mg/kg/injection, schedule: Q01DX009 (ip), vehicle: saline with Tween-80): 107 % of control
